{"source": "paper PMC8329280", "about": "(Scientific Reports, 2021)", "key": {"[1]": {"test_system": "proteases produced by Staphylococcus aureus", "conditions": "cited from earlier work", "excerpt": "In particular, CgA is an acidic glyco-phospho-protein stored in secretory vesicles of numerous nervous, neuroendocrine and immune cells. […] In a ..."}, "[2]": {"test_system": "human gingival fibroblast (HGF-1)", "conditions": "cited from earlier work"}, "Pseudomonas aeruginosa": {"test_system": "Pseudomonas aeruginosa", "type": "cell-based", "description": "(§1) The L- and D- forms of Ctl and also the corresponding L- and D-forms of the scramble peptides were tested by Atlangram (Nantes, France) against resistant Gram-negative bacteria (Escherichia coli, Klebsiella pneumoniae, Enterobacter cloacae, Enterobacter aerogenes, Serratia marcescens, Morganella morganii, Pseudomonas aeruginosa), MSSA, MRSA and yeast (C. albicans). The MICs were determined according to the CASFM/EUCAST 2018 (Comité de l’Antibiogramme de la Société Française de Microbiologie)."}, "Serratia marcescens": {"test_system": "Serratia marcescens", "type": "cell-based", "description": "as §1"}, "Morganella morganii": {"test_system": "Morganella morganii", "type": "cell-based", "description": "as §1"}, "Enterobacter cloacae": {"test_system": "Enterobacter cloacae", "type": "cell-based", "description": "as §1"}, "Candida albicans": {"test_system": "Candida albicans", "type": "cell-based", "description": "as §1"}, "[3]": {"test_system": "methicillin sensitive S. aureus (MSSA, strain 49775)", "type": "cell-based, Staphylococcus aureus", "description": "(§2) Antibacterial assays were realized to the method previously reported[22],[25]. S. aureus strains were pre-cultured for 20 h in aerobic conditions at 37 °C in Mueller–Hinton Broth (MHB) medium (Becton–Dickinson Microbiology Company, Sparks, USA) (pH 7.4). Bacteria were suspended at absorbance of 0.001 at 620 nm in the MHB medium. Antibacterial activity was tested for 24 h incubation at 37 °C with shaking by measuring the inhibition of bacterial growth. Ten µl of final volumes (10–200 µg/mL) of synthetic peptides were incubated in microtitration plates with 90 µl of a mid-logarithmic phase culture of bacteria, with a starting absorbance of 0.001 at 620 nm. A mixture of Tetracycline (10 mg/L) and Cefotaxime (0.1 mg/L) were used as positive controls. Microbial growth was assessed by the increase of absorbance after 24 h incubation at 37 °C. The A620 nm value of control cultures growing in the absence of peptide and antibiotics was defined as 100% growth. A620 nm value with the antibiotics (Tetracycline and Cefotaxime) was taken as 100% inhibition. Absence of bacterial growth was verified by agar plate spreading. Each assay was performed in triplicates. Data were shown as mean + /− standard deviation of three independent experiments; p < 0.05."}, "[4]": {"test_system": "human intestinal epithelial cell (caco-2)", "conditions": "cited from earlier work"}, "MRSA": {"test_system": "MRSA", "type": "cell-based, Staphylococcus aureus", "description": "as §1"}, "MSSA": {"test_system": "MSSA", "type": "cell-based, Staphylococcus aureus", "description": "as §1"}, "S. aureus V8": {"test_system": "S. aureus V8", "type": "cell-based, Staphylococcus aureus", "conditions": "V8, 24 h", "description": "as §2"}, "S. aureus 25923 (MSSA)": {"test_system": "S. aureus 25923 (MSSA)", "type": "cell-based, Staphylococcus aureus", "conditions": "25923, 24 h", "description": "as §2"}, "[5]": {"target": "Endoprotease Glu-C from S. aureus V8 (E.C. 3.4.21.19) (Staphylococcus aureus, UniProt P0C1U8)", "sequence (P0C1U8 69-336)": "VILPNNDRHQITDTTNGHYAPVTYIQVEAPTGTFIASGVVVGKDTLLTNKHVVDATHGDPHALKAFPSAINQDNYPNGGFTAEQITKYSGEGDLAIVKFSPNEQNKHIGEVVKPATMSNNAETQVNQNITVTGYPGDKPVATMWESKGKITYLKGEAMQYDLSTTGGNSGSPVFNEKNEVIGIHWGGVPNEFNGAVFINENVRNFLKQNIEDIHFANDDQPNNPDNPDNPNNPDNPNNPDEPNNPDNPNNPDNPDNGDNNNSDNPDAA", "conditions": "50 mM Tris–HCl pH 8.2, 37 °C, enzyme added for 4 h then same amount for 18 h; RP-HPLC, optical density at 214 nm", "description": "Endoprotease Glu-C from S. aureus V8 (E.C. 3.4.21.19) was provided from Sigma Aldrich (Saint Louis, USA). Digestion of DOPA5T-Ctl (12.5 µg) by endoprotease Glu-C (Sigma-Aldrich Chemie Saint Quentin Fallavier, France) (3.5 µg) was obtained for 18 h at 37 °C in 50 mM Tris–HCl pH 8.2 or PBS[28]. Enzyme (1.75 µg) was added for a digestion of 4 h and then the same amount was added for 18 h. The enzymatic digestion was stopped by addition of 25 µL of 0.1% (vol/vol) TFA in milliQ water. The fragments resulting from enzymatic digestion were isolated with a RP-HPLC with a Dionex HPLC system on a Vydac 208 TP C8 column (3 × 250 mm), and identified by Maldi-tof mass spectrometry, as previously reported for the characterization of the synthetic peptides."}, "Escherichia coli": {"test_system": "Escherichia coli", "type": "cell-based", "description": "as §1"}, "Klebsiella pneumoniae": {"test_system": "Klebsiella pneumoniae", "type": "cell-based", "description": "as §1"}, "Enterobacter aerogenes": {"test_system": "Enterobacter aerogenes", "type": "cell-based", "description": "as §1"}, "Citrobacter freundii": {"test_system": "Citrobacter freundii", "type": "cell-based"}}, "note": "Non-standard residues stand in square brackets, D forms with d. Residues, ends and D or L forms follow the SMILES beside them. No end group written: not given here. Dopa = N[C@@H](Cc1ccc(O)c(O)c1)C(=O)O"}
{"compound": "RSMRLSFRARGYGFR [Ctl, Cateslytin]", "values": [{"measurement": "degradation by the proteases produced by Staphylococcus aureus", "setting": "[1]", "value": "resistant to degradation"}, {"measurement": "toxicity for HGF-1", "setting": "[2]", "value": "not toxic"}, {"measurement": "MIC", "setting": "Pseudomonas aeruginosa", "value": "> 128", "unit": "µg/mL"}, {"measurement": "MIC", "setting": "Serratia marcescens", "value": "> 128", "unit": "µg/mL"}, {"measurement": "MIC", "setting": "Morganella morganii", "value": "> 128", "unit": "µg/mL"}, {"measurement": "MIC", "setting": "Enterobacter cloacae", "value": "> 128", "unit": "µg/mL"}, {"measurement": "MIC", "setting": "Candida albicans", "value": 512, "unit": "µg/mL"}, {"measurement": "MIC MSSA", "setting": "[3]; methicillin sensitive (, strain 49775, 20 h)", "value": 93.0, "unit": "µg/mL"}, {"measurement": "toxicity for caco-2", "setting": "[4]", "value": "not toxic"}, {"measurement": "MIC", "setting": "MRSA", "value": "> 128", "unit": "µg/mL"}, {"measurement": "MIC", "setting": "MSSA", "value": "> 128", "unit": "µg/mL"}]}
{"compound": "CSCC[C@H](NC(=O)[C@H](CO)NC(=O)[C@H](CCCNC(=N)N)NC(=O)[C@H](CCC(=O)O)NC(=O)CNC(=O)CNC(=O)[C@H](CCCNC(=N)N)NC(=O)[C@H](CC(C)C)NC(=O)[C@@H](NC(=O)[C@H](Cc1ccc(O)c(O)c1)NC(=O)[C@H](CCCCN)NC(=O)[C@H](Cc1ccc(O)c(O)c1)NC(=O)[C@H](CCCCN)NC(=O)[C@@H](N)Cc1ccc(O)c(O)c1)[C@@H](C)O)C(=O)N[C@@H](CCCNC(=N)N)C(=O)N[C@@H](CC(C)C)C(=O)N[C@@H](CO)C(=O)N[C@@H](Cc1ccccc1)C(=O)N[C@@H](CCCNC(=N)N)C(=O)N[C@@H](C)C(=O)N[C@@H](CCCNC(=N)N)C(=O)NCC(=O)N[C@@H](Cc1ccc(O)cc1)C(=O)NCC(=O)N[C@@H](Cc1ccccc1)C(=O)N[C@@H](CCCNC(=N)N)C(=O)O", "note": "[DOPA5T-Ctl] (H-[Dopa]K[Dopa]K[Dopa]TLRGGERSMRLSFRARGYGFR-OH)", "values": [{"measurement": "IC50", "setting": "S. aureus V8", "value": 65, "unit": "µM"}, {"measurement": "IC50", "setting": "S. aureus 25923 (MSSA)", "value": 20, "unit": "µM"}, {"measurement": "IC50", "setting": "[3]; methicillin sensitive (, strain 49775, 24 h)", "value": 45, "unit": "µM"}, {"measurement": "Ctl and its oxidized form released after Glu-C digestion", "setting": "[5]", "value": 76, "unit": "%"}, {"measurement": "proteolysis by Glu-C endoprotease", "setting": "[5]", "value": "full proteolysis"}]}
{"compound": "FMRLRYRSSAFGGRR [Control L, reference compound]", "values": [{"measurement": "MIC", "setting": "Escherichia coli", "value": "> 128", "unit": "µg/mL"}, {"measurement": "MIC", "setting": "Pseudomonas aeruginosa", "value": "> 128", "unit": "µg/mL"}, {"measurement": "MIC", "setting": "Serratia marcescens", "value": "> 128", "unit": "µg/mL"}, {"measurement": "MIC", "setting": "Klebsiella pneumoniae", "value": "> 128", "unit": "µg/mL"}, {"measurement": "MIC", "setting": "Morganella morganii", "value": "> 128", "unit": "µg/mL"}, {"measurement": "MIC", "setting": "Enterobacter aerogenes", "value": "> 128", "unit": "µg/mL"}, {"measurement": "MIC", "setting": "Enterobacter cloacae", "value": "> 128", "unit": "µg/mL"}, {"measurement": "MIC", "setting": "Candida albicans", "value": 512, "unit": "µg/mL"}, {"measurement": "MIC", "setting": "Citrobacter freundii", "value": "> 128", "unit": "µg/mL"}, {"measurement": "MIC", "setting": "MRSA", "value": "> 128", "unit": "µg/mL"}, {"measurement": "MIC", "setting": "MSSA", "value": "> 128", "unit": "µg/mL"}]}
